Experimental data as given in patent US4835160A, “Derivatives of pyridoindole, having anti-tumor properties” (Sanofi, priority 1986, dated 1989).

What was measured:
colic adenocarcinoma 38 [1] = test: Test for colic adenocarcinoma 38, SC/D1 IV; format: in vivo, BDF1 hybrid mice; conditions: for Number of survivors: day D38; for T/C % at D38: tumour volume
Method: (§1) The antitumour activity was tested in vivo on various tumours inoculated in various ways according to the following general protocol:
(§2) All the male or female mice are inoculated on day D0 with a known quantity of viable tumour cells for ascitic tumours or with a known tumour fragment for solid tumours.
(§3) They are then distributed into various groups. Each group, corresponding to the animals treated by the product under test, is made up of 10 mice. The product under test is dissolved in distilled water and it is administered n times (Dx-Dy), n, y, and x varying according to the protocol chosen, at the rate of 0.1 ml of solution per 10 g by weight of mice treated and at specific doses for each protocol.
(§4) The "negative control" group, corresponding to the animals which are not treated by the product, contains 2√N animals, N being equal to or greater than the total number of mice treated by the product in the same experiment.
(§5) the antitumour activity is evaluated, in the case of solid tumours, by considering the reduction in the average tumour volume of the treated animals in comparison with the animals of the "negative control" group, according to the formula: [formula]
(§6) A value for T/C of less than 42% indicates an activity for the product at the studied dose.
(h) Test for colic adenocarcinoma 38, SC/D1 IV. (GERAN et al., Cancer Chemother., 1972, 2, 07-57).
(§7) The tests are carried out with BDF1 hybrid mice inoculated by subcutaneous route with a standardized tumour fragment of 3 mm^3. The compound under test is administered by intravenous route only on day D1.
The number of surviving animals is evaluated on day D38.

[2] = test system: leukemia tumour line L 1210; test: In vitro cytotoxic activity on leukemia tumour line L 1210; format: cell-based; conditions: L 1210, 48 hours contact, 37° C.; read-out: I D 50 (concentration which inhibits the proliferation of the cells by 50%)
Procedure, shortened: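 Exponentially growing L 1210 leukemia cells were exposed to increasing compound concentrations at 37 °C under CO2 and counted every 24 h. ID50, the concentration inhibiting proliferation by 50%, was calculated after 48 h contact.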

leukemia P388 = test: Test for leukemia P388, IP/IP, D1; format: in vivo, CDF1 hybrid mice; conditions: for Number of survivors: day D30; for T/C %: survival time
Method: as §1, §2, §3, §4
(§8) Finally, the tests can also be carried out at the same time as the study of a group called "positive control", of ten animals, which is treated by a molecule, known for its antitumour activity and which can vary according to the protocol chosen, in the same conditions as the groups treated by the product under test.
(§9) The antitumour activity is evaluated, in the case of ascitic tumours, by considering the increase in the survival time of the animals treated in comparison to that of the animals in the "negative control" group, according to the formula: [formula]
(§10) Also, a product is considered as toxic at the dose studied when this T/C value is equal to or less than 85%. In addition, a product is also considered as toxic at the dose studied when the weight variation, expressed in grams and calculated by the formula: […]
(§11) The tests are carried out with CDF1 hybrid mice inoculated by intraperitoneal route with 10^6 leukemia cells from the P 388 line. The compound under test is administered for 5 successive days (D1-D5) by intraperitoneal route. The positive control for the test is 5-fluorouracile which is administered in the same conditions. The number of surviving animals is evaluated on day D30.
(b) Test for Leukemia P388, IP/IP, D1 (GERAN et al. Cancer chemother., 1972, 2, 07-57).
The test is carried out according to the preceding protocol, the compound under test being administered only on day D1.

leukemia P 388 [3] = test: Test for leukemia P 388 IP/D1 IV; format: in vivo, CDF1 hybrid mice; conditions: for Number of survivors: day D30; for T/C %: survival time
Method: as §1, §2, §3, §4, §8, §9, §10, §11
(f) Test for leukemia P 388 IP/D1 IV (GERAN et al., Cancer Chemother., 1972, 2, 07-57).
The test is carried out according to the same protocol as that described for test (a), the compound under test being administered by intravenous route only on day D1.

colic adenocarcinoma 38 [4] = test: Test for colic adenocarcinoma 38, SC/D2,9 IV; format: in vivo, BDF1 hybrid mice; design: Average tumour volume at D32: unit not given beside the values; conditions: D2 and D9; for Number of survivors: day D32; for T/C % at D32: tumour volume
Method: as §1, §2, §3, §4, §5, §6, §7
(i) Test for colic adenocarcinoma 38, SC/D2,9 IV (GERAN et al., Cancer Chemother., 1972, 2, 07-57).
This test is carried out according to the protocol described for test (h), the compound under test being administered by intravenous route on day D2 then on day D9.
The number of surviving animals is evaluated on day D32.

leukemia P 388 [5] = test: Test of leukemia P 388; IP/IP, D1-5; format: in vivo, CDF1 hybrid mice; conditions: D1-D5; for Number of survivors: day D30; for T/C %: survival time
Procedure, shortened: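 CDF1 hybrid mice received 10^6 P 388 cells intraperitoneally, then compound in distilled water by intraperitoneal route daily D1-D5, 10 mice per group, 5-fluorouracil as positive control. Activity judged as T/C survival time versus untreated controls, survivors counted at D30; T/C ≤85% or day 5 minus day 1 weight change ≤ −4 g counted as toxic.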

Which results are given for CCN(CC)CCCNc1ncc(C)c2c1c1cc(O)ccc1n2C [Derivative No. 12, 1-(3-diethylaminopropylamino)-4,5-dimethyl-8-hydroxy-5H-pyrido[4,3-b]indole]?
Average tumour volume at D38 (colic adenocarcinoma 38 [1]; 100 mg/kg IV): 3.24; Number of survivors (colic adenocarcinoma 38 [1]; 100 mg/kg IV): 10/10; T/C % at D38 (colic adenocarcinoma 38 [1]; 100 mg/kg IV): 36%; IC50 [2]: 35 nM; Median day of survival (leukemia P388; 5 mg/kg IP): 15.87 days; Variation by weight (g) (leukemia P388; 5 mg/kg IP): +0.1 g; Number of survivors (leukemia P388; 5 mg/kg IP): 0/10; T/C % (leukemia P388; 5 mg/kg IP): 139%; Median day of survival (leukemia P388; 10 mg/kg IP): 17.75 days; Variation by weight (leukemia P388; 10 mg/kg IP): -0.6 g; Number of survivors (leukemia P388; 10 mg/kg IP): 0/10; T/C % (leukemia P388; 10 mg/kg IP): 156%; Median day of survival (leukemia P388; 20 mg/kg IP): 20.75 days; Variation by weight (leukemia P388; 20 mg/kg IP): -1.2 g; Number of survivors (leukemia P388; 20 mg/kg IP): 0/10; T/C % (leukemia P388; 20 mg/kg IP): 182%; Median day of survival (leukemia P388; 40 mg/kg IP): 23.0 days; Variation by weight (leukemia P388; 40 mg/kg IP): -6.2 g; Number of survivors (leukemia P388; 40 mg/kg IP): 1/10; T/C % (leukemia P388; 40 mg/kg IP): 202%; Median day of survival (leukemia P 388 [3]; 50 mg/kg IV): 19.0 days; Variation by weight (leukemia P 388 [3]; 50 mg/kg IV): -0.7 g; Number of survivors (leukemia P 388 [3]; 50 mg/kg IV): 0/10; T/C % (leukemia P 388 [3]; 50 mg/kg IV): 174%; Median day of survival (leukemia P 388 [3]; 100 mg/kg IV): 24.3 days; Variation by weight (leukemia P 388 [3]; 100 mg/kg IV): -1.6 g; Number of survivors (leukemia P 388 [3]; 100 mg/kg IV): 1/10; T/C % (leukemia P 388 [3]; 100 mg/kg IV): 223%; Average tumour volume at D32 (colic adenocarcinoma 38 [4]; 50 mg/kg IV): 1.38; Number of survivors (colic adenocarcinoma 38 [4]; 50 mg/kg IV): 10/10; T/C % at D32 (colic adenocarcinoma 38 [4]; 50 mg/kg IV): 18%; Average tumour volume at D32 (colic adenocarcinoma 38 [4]; 75 mg/kg IV): 0.97; Number of survivors (colic adenocarcinoma 38 [4]; 75 mg/kg IV): 10/10; T/C % at D32 (colic adenocarcinoma 38 [4]; 75 mg/kg IV): 13%; Median day of survival (leukemia P 388 [5]; 1.25 mg/kg IP): 16.7 days; Variation by weight (leukemia P 388 [5]; 1.25 mg/kg IP): -0.5 g; Number of survivors (leukemia P 388 [5]; 1.25 mg/kg IP): 1/10; T/C % (leukemia P 388 [5]; 1.25 mg/kg IP): 152%; Median day of survival (leukemia P 388 [5]; 2.5 mg/kg IP): 18.0 days; Variation by weight (leukemia P 388 [5]; 2.5 mg/kg IP): -1.2 g; Number of survivors (leukemia P 388 [5]; 2.5 mg/kg IP): 0/10; T/C % (leukemia P 388 [5]; 2.5 mg/kg IP): 164%; Median day of survival (leukemia P 388 [5]; 5 mg/kg IP): 19.00 days; Variation by weight (leukemia P 388 [5]; 5 mg/kg IP): -1.9 g; Number of survivors (leukemia P 388 [5]; 5 mg/kg IP): 2/10; T/C % (leukemia P 388 [5]; 5 mg/kg IP): 173%; Median day of survival (leukemia P 388 [5]; 10 mg/kg IP): 19.3 days; Number of survivors (leukemia P 388 [5]; 10 mg/kg IP): 0/10; T/C % (leukemia P 388 [5]; 10 mg/kg IP): 176%; Median day of survival (leukemia P 388 [5]; 20 mg/kg IP): 9.7 days; Variation by weight (leukemia P 388 [5]; 20 mg/kg IP): -5.9 g; Number of survivors (leukemia P 388 [5]; 20 mg/kg IP): 0/10; T/C % (leukemia P 388 [5]; 20 mg/kg IP): 88%

Which results are given for Cc1cnc(NCCCN(C)C)c2c3cc(O)ccc3n(C)c12 [Derivative No. 15, 4,5-dimethyl 1(3-dimethylaminopropylamino)-8-hydroxy-5H-pyrido[4,3-b]indole]?
Average tumour volume at D38 (colic adenocarcinoma 38 [1]; 50 mg/kg IV): 2.73; Number of survivors (colic adenocarcinoma 38 [1]; 50 mg/kg IV): 10/10; T/C % at D38 (colic adenocarcinoma 38 [1]; 50 mg/kg IV): 30%; IC50 [2]: 10 nM; Median day of survival (leukemia P 388 [3]; 50 mg/kg IV): 17.75 days; Variation by weight (g) (leukemia P 388 [3]; 50 mg/kg IV): +0.5 g; Number of survivors (leukemia P 388 [3]; 50 mg/kg IV): 1/10; T/C % (leukemia P 388 [3]; 50 mg/kg IV): 163%; Median day of survival (leukemia P 388 [3]; 100 mg/kg IV): 25.75 days; Variation by weight (leukemia P 388 [3]; 100 mg/kg IV): -0.25 g; Number of survivors (leukemia P 388 [3]; 100 mg/kg IV): 4/10; T/C % (leukemia P 388 [3]; 100 mg/kg IV): 236%; Average tumour volume at D32 (colic adenocarcinoma 38 [4]; 25 mg/kg IV): 0.0; Number of survivors (colic adenocarcinoma 38 [4]; 25 mg/kg IV): 10/10; T/C % at D32 (colic adenocarcinoma 38 [4]; 25 mg/kg IV): 0%; Average tumour volume at D32 (colic adenocarcinoma 38 [4]; 50 mg/kg IV): 0.0; Number of survivors (colic adenocarcinoma 38 [4]; 50 mg/kg IV): 10/10; T/C % at D32 (colic adenocarcinoma 38 [4]; 50 mg/kg IV): 0%; Median day of survival (leukemia P 388 [5]; 1.25 mg/kg IP): 18.0 days; Variation by weight (leukemia P 388 [5]; 1.25 mg/kg IP): -1.9 g; Number of survivors (leukemia P 388 [5]; 1.25 mg/kg IP): 0/10; T/C % (leukemia P 388 [5]; 1.25 mg/kg IP): 164%; Median day of survival (leukemia P 388 [5]; 2.5 mg/kg IP): 20.25 days; Variation by weight (leukemia P 388 [5]; 2.5 mg/kg IP): -1.9 g; Number of survivors (leukemia P 388 [5]; 2.5 mg/kg IP): 0/10; T/C % (leukemia P 388 [5]; 2.5 mg/kg IP): 184%; Median day of survival (leukemia P 388 [5]; 5 mg/kg IP): 26 days; Variation by weight (leukemia P 388 [5]; 5 mg/kg IP): -2.5 g; Number of survivors (leukemia P 388 [5]; 5 mg/kg IP): 1/10; T/C % (leukemia P 388 [5]; 5 mg/kg IP): 236%; Median day of survival (leukemia P 388 [5]; 10 mg/kg IP): 9.3 days; Variation by weight (leukemia P 388 [5]; 10 mg/kg IP): -4.1 g; Number of survivors (leukemia P 388 [5]; 10 mg/kg IP): 0/10; T/C % (leukemia P 388 [5]; 10 mg/kg IP): 85%
